Data from the supplement of paper PMC10307832.

What was measured:
Test in all cases: relative viability (nuclei count vs DMSO), 5 days (fraction); higher = more cells survive
[1] = compound: COc1cc(Nc2ncc(F)c(Nc3ccc4c(n3)NC(=O)C(C)(C)O4)n2)cc(OC)c1OC [R406] + CC1(C)CCC(c2ccc(Cl)cc2)=C(CN2CCN(c3ccc(C(=O)NS(=O)(=O)c4ccc(N[C@H](CCN5CCOCC5)CSc5ccccc5)c(S(=O)(=O)C(F)(F)F)c4)cc3)CC2)C1 [Navitoclax] (partner 0.5 µM)
Summary of the method: (§1)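 After 5 days of treatment, lung cancer cells in 1536-well plates were fixed and stained in a single step (final 0.05% Triton X-100, 1% formaldehyde, 1 ug/ml Hoechst) and their nuclei counted on 4× images. Treatment had been applied by pin tool the day after seeding as one drug alone or as a fixed anchor-drug dose with five library-drug doses (not always all listed) in √10 steps. Relative viability is the nuclei count of treated wells divided by that of vehicle wells, and values are medians of duplicate plates.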

[2] = compound: COc1cc(Nc2ncc(F)c(Nc3ccc4c(n3)NC(=O)C(C)(C)O4)n2)cc(OC)c1OC [R406] + CC(C)C[C@H](NC(=O)[C@H](Cc1ccccc1)NC(=O)c1cnccn1)B(O)O [Bortezomib] (partner 0.002 µM)
Summary of the method: as §1

[3] = compound: COc1cc(Nc2ncc(F)c(Nc3ccc4c(n3)NC(=O)C(C)(C)O4)n2)cc(OC)c1OC [R406] + Nc1nc2[nH]cc(CCc3ccc(C(=O)N[C@@H](CCC(=O)O)C(=O)O)cc3)c2c(=O)[nH]1 [Pemetrexed] (partner 0.2 µM)
Summary of the method: as §1

[4] = compound: O=C(/C=C/c1cccnc1)NCCCCC1CCN(C(=O)c2ccccc2)CC1 [Daporinad] + N=C(N)NC(=N)NCCc1ccccc1 [Phenformin] (partner 250 µM)
Summary of the method: as §1

| Cell Line | relative viability ([1]; first compound 0.08 µM) | relative viability ([1]; first compound 0.253 µM) | relative viability ([1]; first compound 0.8 µM) | relative viability ([1]; first compound 2.53 µM) | relative viability ([1]; first compound 8 µM) | relative viability ([2]; first compound 0.08 µM) | relative viability ([2]; first compound 0.253 µM) | relative viability ([2]; first compound 0.8 µM) | relative viability ([2]; first compound 2.53 µM) | relative viability ([2]; first compound 8 µM) | relative viability ([3]; first compound 0.08 µM) | relative viability ([3]; first compound 0.253 µM) | relative viability ([3]; first compound 0.8 µM) | relative viability ([3]; first compound 2.53 µM) | relative viability ([3]; first compound 8 µM) | relative viability ([4]; first compound 0.0005 µM) | relative viability ([4]; first compound 0.001581 µM) | relative viability ([4]; first compound 0.005 µM) | relative viability ([4]; first compound 0.01581 µM) |
| --- | --- | --- | --- | --- | --- | --- | --- | --- | --- | --- | --- | --- | --- | --- | --- | --- | --- | --- | --- |
| NCI-H2126 | 0.88 | 0.83 | 0.829 | 0.8 | 0.64 | 1.05 | 1.13 | 1.24 | 1.03 | 1.04 | 0.749 | 0.664 | 0.722 | 0.599 | 0.61 | 0.541 | 0.533 | 0.586 | 0.62 |
| NCI-H2228 | 1.17 | 1.33 | 0.996 | 0.628 | 0.168 | 1.05 | 1.15 | 1.32 | 0.118 | 0.304 | 0.316 | 0.332 | 0.352 | 0.255 | 0.0888 | 0.352 | 0.301 | 0.311 | 0.417 |
| NCI-H2347 | 0.736 | 0.824 | 0.95 | 0.663 | 0.529 | 1.07 | 1.25 | 1.19 | 0.815 | 0.642 | 0.402 | 0.398 | 0.433 | 0.395 | 0.387 | 0.53 | 0.319 | 0.447 | 0.379 |
| NCI-H2405 | 0.823 | 0.844 | 0.928 | 0.691 | 0.156 | 1.01 | 1.11 | 1.05 | 0.941 | 0.845 | 1.14 | 1.22 | 1.08 | 0.495 | 0.224 | 0.43 | 0.459 | 0.484 | 0.366 |
| NCI-H3122 | 1.06 | 0.971 | 1.02 | 1.02 | 0.82 | 0.97 | 0.972 | 1.03 | 1.01 | 0.947 | 0.198 | 0.202 | 0.189 | 0.194 | 0.17 | 0.36 | 0.391 | 0.387 | 0.333 |
| PC-3 [JPC-3] | 0.828 | 0.819 | 0.833 | 0.685 | 0.6 | 0.916 | 0.866 | 0.927 | 0.758 | 0.755 | 1.08 | 1.25 | 1.25 | 0.882 | 0.455 | 0.494 | 0.481 | 0.478 | 0.471 |
| PC-14 | 1.01 | 1.05 | 1.04 | 0.984 | 0.836 | 0.874 | 0.957 | 0.909 | 0.604 | 0.704 | 0.139 | 0.131 | 0.135 | 0.101 | 0.042 | 0.357 | 0.633 | 0.488 | 0.4 |
| RERF-LC-KJ | 1.09 | 0.64 | 1.03 | 0.738 | 0.842 | 1.15 | 1.23 | 1.26 | 0.932 | 1.01 | 0.457 | 0.487 | 0.473 | 0.458 | 0.381 | 0.376 | 0.443 | 0.537 | 0.477 |
| SK-LU-1 | 0.483 | 1.2 | 0.725 | 0.385 | 0.145 | 1.16 | 1.32 | 1.09 | 0.384 | 0.544 | 0.952 | 1.06 | 1.1 | 0.528 | 0.187 | 0.444 | 0.649 | 0.628 | 0.662 |
| SW 1573 | 0.956 | 1.1 | 1.2 | 0.794 | 0.5 | 0.994 | 1.23 | 1.35 | 0.768 | 0.569 | 0.815 | 0.898 | 0.903 | 0.601 | 0.324 | 0.352 | 0.383 | 0.232 | 0.18 |
